Test results as given in PubChem BioAssay AID310 (DTP/NCI, 2004).
Values joined by “and” are separate entries in the source; they are usually repeats but may differ in a detail not shown here. Identical values can stand only once. Results filed as inconclusive are left out. Where a SMILES comes first, the peptide text is derived from it. [ ]: non-standard residue; d: D form. Ac5c = NC1(C(=O)O)CCCC1

Test system: C3AKF1 mice, osteogenic sarcoma HE10734 s.c., tumor weight T/C
Assay: NCI In Vivo Anticancer Drug Screen. Data for tumor model Osteogenic Sarcoma HE 10734 (subcutaneous) in C3AKF1 (CHKRF1) mice
Settings: endpoint: mean tumor weight, schedule: Q01DX010 (ip), higher = larger tumour
Procedure: The antitumor activity of compounds was measured in mice bearing transplantable tumors. Survival or tumor size were measured and the results are expressed as the measurement made in the treated group (T) divided by the measurement made in the vehicle treated control group (C). The tumor model used in this assay is Osteogenic Sarcoma HE 10734 (subcutaneous) in C3AKF1 (CHKRF1) mice

[1] = dose: 25.0 mg/kg/injection, vehicle: saline
[2] = dose: 2.5 mg/kg/injection, vehicle: carboxymethylcellulose (CMC)
[3] = dose: 50.0 mg/kg/injection, vehicle: carboxymethylcellulose (CMC)
[4] = dose: 50.0 mg/kg/injection, vehicle: saline
[5] = dose: 100.0 mg/kg/injection, vehicle: saline
[6] = dose: 200.0 mg/kg/injection, vehicle: saline
[7] = dose: 125.0 mg/kg/injection, vehicle: saline
[8] = dose: 16.0 mg/kg/injection, vehicle: carboxymethylcellulose (CMC)
[9] = dose: 55.0 mg/kg/injection, vehicle: carboxymethylcellulose (CMC)
[10] = dose: 75.0 mg/kg/injection, vehicle: saline
[11] = dose: 150.0 mg/kg/injection, vehicle: saline
[12] = dose: 250.0 mg/kg/injection, vehicle: saline
[13] = dose: 500.0 mg/kg/injection, vehicle: saline
[14] = dose: 1000.0 mg/kg/injection, vehicle: saline
[15] = dose: 1.5 mg/kg/injection, vehicle: carboxymethylcellulose (CMC)

CN(C)CCCN1c2ccccc2Sc2ccc(C(F)(F)F)cc21
T/C (dose: 12.0 mg/kg/injection, vehicle: saline): 90 % of control
T/C [1]: 90 % of control

COc1ccc(-c2c(CC(=O)O)c3cc(OC)ccc3n2Cc2ccc(Cl)cc2)cc1
T/C (dose: 125.0 mg/kg/injection, vehicle: carboxymethylcellulose (CMC)): 116 % of control
T/C (dose: 250.0 mg/kg/injection, vehicle: carboxymethylcellulose (CMC)): 66 % of control
T/C (dose: 500.0 mg/kg/injection, vehicle: carboxymethylcellulose (CMC)): 54 % of control
T/C (dose: 1000.0 mg/kg/injection, vehicle: carboxymethylcellulose (CMC)): 56 % of control

O=P(c1ccccc1)(N1CC1)N1CC1
T/C (dose: 3.13 mg/kg/injection, vehicle: saline): 106 % of control
T/C (dose: 6.25 mg/kg/injection, vehicle: saline): 93 % of control
T/C (dose: 12.5 mg/kg/injection, vehicle: saline): 105 % of control
T/C [1]: 68 % of control and 71 % of control

CN(C)c1ccc(/C=C\c2ccnc3ccccc23)cc1
T/C [2]: 50 % of control
T/C (dose: 14.0 mg/kg/injection, vehicle: carboxymethylcellulose (CMC)): 68 % of control
T/C (dose: 22.0 mg/kg/injection, vehicle: carboxymethylcellulose (CMC)): 44 % of control
T/C [3]: 48 % of control
T/C (dose: 75.0 mg/kg/injection, vehicle: carboxymethylcellulose (CMC)): 27 % of control
T/C (dose: 100.0 mg/kg/injection, vehicle: carboxymethylcellulose (CMC)): 67 % of control

NC(=O)c1ccc(NC(=O)CCC(=O)Nc2ccc(C(N)=O)cn2)nc1
T/C (dose: 0.66 mg/kg/injection, vehicle: carboxymethylcellulose (CMC)): 118 % of control and 120 % of control
T/C [2]: 67 % of control

CCCCCCCCCCCCO[P+](=O)OCCCCCCCCCCCC
T/C (dose: 65.0 mg/kg/injection, vehicle: carboxymethylcellulose (CMC)): 81 % of control
T/C (dose: 95.0 mg/kg/injection, vehicle: carboxymethylcellulose (CMC)): 55 % of control
T/C (dose: 145.0 mg/kg/injection, vehicle: carboxymethylcellulose (CMC)): 51 % of control
T/C (dose: 220.0 mg/kg/injection, vehicle: carboxymethylcellulose (CMC)): 48 % of control
T/C (dose: 222.0 mg/kg/injection, vehicle: carboxymethylcellulose (CMC)): 36 % of control

CCCC(Sc1nc(N)nc2nc[nH]c12)C(=O)O (stereo not drawn)
T/C [4]: 80 % of control
T/C [5]: 53 % of control
T/C [6]: 40 % of control
T/C (dose: 400.0 mg/kg/injection, vehicle: saline): 17 % of control

C=CCn1c(=O)n(CC=C)c(=O)n(CC=C)c1=O
T/C (dose: 31.0 mg/kg/injection, vehicle: saline): 84 % of control
T/C (dose: 62.0 mg/kg/injection, vehicle: saline): 94 % of control
T/C [7]: 69 % of control
T/C (dose: 375.0 mg/kg/injection, vehicle: saline): 31 % of control

CS(=O)(=O)OCCCCCCCCCOS(C)(=O)=O
T/C (dose: 8.0 mg/kg/injection, vehicle: carboxymethylcellulose (CMC)): 81 % of control
T/C [8]: 81 % of control
T/C (dose: 28.0 mg/kg/injection, vehicle: carboxymethylcellulose (CMC)): 57 % of control
T/C [9]: 37 % of control

CSc1ncnc2c1ncn2C1CCCO1 (stereo not drawn)
T/C (dose: 20.0 mg/kg/injection, vehicle: saline): 76 % of control
T/C (dose: 40.0 mg/kg/injection, vehicle: saline): 83 % of control
T/C (dose: 160.0 mg/kg/injection, vehicle: saline): 44 % of control

Nc1ncnc2c1ncn2C1CCCO1 (stereo not drawn)
T/C [10]: 86 % of control
T/C [11]: 54 % of control

CS(=O)(=O)OCC(O)C(O)COS(C)(=O)=O (stereo not drawn)
T/C [7]: 121 % of control
T/C [12]: 111 % of control
T/C [13]: 81 % of control
T/C [14]: 101 % of control

CSc1ncc(Br)c(Sc2nc(N)nc3nc[nH]c23)n1
T/C [15]: 103 % of control
T/C (dose: 3.0 mg/kg/injection, vehicle: carboxymethylcellulose (CMC)): 87 % of control
T/C (dose: 6.0 mg/kg/injection, vehicle: carboxymethylcellulose (CMC)): 55 % of control
T/C (dose: 12.0 mg/kg/injection, vehicle: carboxymethylcellulose (CMC)): 77 % of control

O=c1[nH]c2cc(Cl)c(Cl)cc2o1
T/C (dose: 10.0 mg/kg/injection, vehicle: carboxymethylcellulose (CMC)): 84 % of control
T/C [8]: 113 % of control
T/C (dose: 24.0 mg/kg/injection, vehicle: carboxymethylcellulose (CMC)): 74 % of control
T/C (dose: 37.0 mg/kg/injection, vehicle: carboxymethylcellulose (CMC)): 105 % of control and 117 % of control
T/C [9]: 80 % of control
T/C (dose: 85.0 mg/kg/injection, vehicle: carboxymethylcellulose (CMC)): 98 % of control

CCc1c(CC(=O)O)c2cc(C)ccc2n1Cc1ccc(Cl)cc1
T/C [4]: 79 % of control

Cn1cnc([N+](=O)[O-])c1Sc1nc(N)nc2c1ncn2C1OC(CO)C(O)C1O (stereo not drawn)
T/C (dose: 7.5 mg/kg/injection, vehicle: carboxymethylcellulose (CMC)): 96 % of control

CC(CCc1cccc2ccccc12)(C(=O)O)C(=O)O
T/C (dose: 35.0 mg/kg/injection, vehicle: saline): 68 % of control
T/C [4]: 157 % of control

CC1(C)CC(C)(c2ccccc2)c2ccccc21 (stereo not drawn)
T/C [10]: 92 % of control
T/C [11]: 70 % of control
T/C (dose: 300.0 mg/kg/injection, vehicle: saline): 52 % of control

Cc1nc(N)nc(N)c1-c1ccc(Cl)c(Cl)c1
T/C (dose: 0.09 mg/kg/injection, vehicle: carboxymethylcellulose (CMC)): 94 % of control
T/C (dose: 0.18 mg/kg/injection, vehicle: carboxymethylcellulose (CMC)): 103 % of control
T/C (dose: 0.37 mg/kg/injection, vehicle: carboxymethylcellulose (CMC)): 88 % of control
T/C [15]: 21 % of control

CCOC(=O)NC
T/C [7]: 104 % of control
T/C [12]: 67 % of control
T/C [13]: 59 % of control
T/C [14]: 27 % of control

O=C(O)CC(O)(CC(=O)O)C(=O)O.[Ga]
T/C (dose: 12.5 mg/kg/injection, vehicle: carboxymethylcellulose (CMC)): 84 % of control
T/C (dose: 25.0 mg/kg/injection, vehicle: carboxymethylcellulose (CMC)): 84 % of control
T/C [3]: 39 % of control

NCC(=O)NC1(C(=O)O)CCCC1 (H-Gly-[Ac5c]-OH)
T/C (dose: 66.0 mg/kg/injection, vehicle: saline): 79 % of control
T/C [5]: 58 % of control
T/C [11]: 35 % of control
T/C (dose: 225.0 mg/kg/injection, vehicle: saline): 20 % of control and 27 % of control

CCCCSc1nc(N)nc2c1ncn2CC(C)CC (stereo not drawn)
T/C [5]: 109 % of control
T/C [6]: 57 % of control

O=C(Nc1ccc(C2=NCCN2)cc1)c1ccc(C(=O)Nc2ccc(C3=NCCN3)cc2)c(NC(=O)c2ccc(C(=O)Nc3cc(C(=O)Nc4ccc(C5=NCCN5)cc4)ccc3C(=O)Nc3ccc(C4=NCCN4)cc3)cc2)c1
T/C (dose: 28.0 mg/kg/injection, vehicle: saline): 111 % of control
T/C (dose: 45.0 mg/kg/injection, vehicle: saline): 104 % of control
T/C (dose: 65.0 mg/kg/injection, vehicle: saline): 118 % of control
T/C (dose: 95.0 mg/kg/injection, vehicle: saline): 98 % of control and 107 % of control
T/C (dose: 140.0 mg/kg/injection, vehicle: saline): 93 % of control
T/C (dose: 210.0 mg/kg/injection, vehicle: saline): 89 % of control
T/C (dose: 315.0 mg/kg/injection, vehicle: saline): 110 % of control

O=C(NO)c1ccncc1
T/C [7]: 113 % of control
T/C [12]: 123 % of control
T/C [13]: 102 % of control
